Measured values: patent US20240368096A1 (Enanta Pharmaceuticals, Inc., priority 2022, published 2024)

What was measured:
[1] = system: HBV; test: HBV infection in HepG2-NTCP cells (HBeAg AlphaLISA in supernatants); assay type: cell-based; details: Hepatitis B virus, 192 h; HBV infection of HepG2-NTCP cells; HBeAg in supernatants at day 8 post infection; read-out: Cellular EC50
How it was run: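 Readout was day-8 supernatant HBeAg by AlphaLISA, with EC50 set against DMSO controls and binned A<0.1 μM, B 0.1-1 μM, C>1 μM. Compounds were added 2 h before HBV (2000 GE/cell, 4% PEG, 0.5% DMSO) to HepG2-NTCP A3 cells; from day 1 medium held 2.5% DMSO.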

[2] = system: HDV; test: HDV infection in HepG2-NTCP cells and RNA quantification (RT-qPCR); assay type: cell-based; details: 288 h; HDV infection of HepG2-NTCP cells; viral RNA by RT-qPCR at day 12 post infection; read-out: Cellular EC50
Protocol: HDV virus collected from the supernatants of HuH7-END cells was purified in the presence of 6% polyethylene glycol (PEG). Viral titer was then quantified by RT-qPCR using HDV specific primers against a reference standard. For HDV infection, HepG2-NTCP cells were seeded in 96-well plates at 60,000 cells/well. On the day of infection, compounds were 4-fold serially diluted in DMSO and pre-incubated with HepG2-NTCP cells for two hours before infecting with 800 GE/cell of HDV in 4% PEG. On day one post infection, HDV-containing media was aspirated, cells were washed once with PBS and then maintained in 2.5% DMSO containing media for the remainder of the assay. Viral RNA was isolated using RNeasy kits (Qiagen) at day 12 post infection and reverse transcribed into cDNA using High-Capacity RNA-to-cDNA Kit (Thermo Fisher). Relative HDV gene expression was quantified by RT-qPCR after normalization to expression of a housekeeping gene. Irrespective of readout, compound concentrations that reduce viral RNA by 50% relative to DMSO controls (EC50) are reported. EC50 ranges are as follows: A<0.1 μM; B 0.1-1 μM; C>1 μM.

[3] = system: HDV; test: HDV infection in primary human hepatocytes (PHHs) and RNA quantification (RT-qPCR); assay type: cell-based; details: Hepatocyte, 192 h, HDV infection of primary human hepatocytes, viral RNA at day 8 post infection
Text: Primary human hepatocytes (Thermo Fisher Scientific) were thawed in Williams E Medium with CM3000 supplement pack (Thermo Fisher Scientific) and seeded at 70,000 cells/well on collagen-coated 96-well plate. Six hours post-seeding, cell medium was changed to Williams E Medium with CM4000 cell maintenance supplement pack for further culture (Thermo Fisher Scientific). HDV virus collected from the supernatants of HuH7-END cells was purified in the presence of 6% polyethylene glycol (PEG). Viral titer was then quantified by RT-qPCR using HDV specific primers against a reference standard. On the day of infection, compounds were 4-fold serially diluted in DMSO and pre-incubated with PHHs for two hours before infecting with 100 GE/cell of HDV in 4% PEG. On day one post infection, HDV-containing media was aspirated, cells were washed once with PBS and then maintained in 2.5% DMSO containing media for the remainder of the assay. Viral RNA was isolated using RNeasy kits at day 8 post infection and reverse transcribed into cDNA using High-Capacity RNA-to-cDNA Kit. Relative HDV gene expression was quantified by RT-qPCR after normalization to expression of a housekeeping gene. Irrespective of readout, compound concentrations that reduce viral RNA by 50% relative to DMSO controls (EC50) are reported. EC50 ranges are as follows: A<0.1 μM; B 0.1-1 μM; C>1 μM.

[4] = target: T1, NTCP (Homo sapiens, UniProt Q14973); test: HepG2-NTCP preS1 binding competition assay (FITC-labeled myristoylated preS1 peptide); details: HepG2-NTCP cells; competition with FITC-labeled preS1 peptide
T1 construct: expressed in transfected cells; host or cells: HepG2-NTCP (clone A3, kept under puromycin)
T1 sequence (Q14973 1-349): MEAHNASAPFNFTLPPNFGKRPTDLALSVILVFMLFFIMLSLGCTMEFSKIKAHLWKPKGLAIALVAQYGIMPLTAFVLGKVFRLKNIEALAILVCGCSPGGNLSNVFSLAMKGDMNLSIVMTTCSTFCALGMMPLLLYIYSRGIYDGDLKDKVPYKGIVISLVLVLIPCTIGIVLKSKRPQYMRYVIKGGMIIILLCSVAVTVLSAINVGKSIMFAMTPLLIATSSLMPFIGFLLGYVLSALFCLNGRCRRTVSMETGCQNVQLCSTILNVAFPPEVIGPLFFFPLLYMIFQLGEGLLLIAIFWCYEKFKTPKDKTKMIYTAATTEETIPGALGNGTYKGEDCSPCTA
Protocol: HepG2-NTCP preS1 Binding Competition Assay
Myristoylated preS1 peptide (2-48 aa) conjugated to a C-terminal FITC tag was synthesized to evaluate preS1 binding to NTCP-expressing cells. HepG2-NTCP cells seeded in 384-wells were pre-treated with compounds for 2 hours prior to the addition of FITC-labeled preS1 peptide. After co-incubation for 30 minutes, unbound FITC-preS1 peptide was washed twice with PBS, and the fluorescence of preS1-FITC bound to cell surface was detected by Envision plate reader. EC50 ranges are as follows: A<0.1 μM; B 0.1-1 μM; C>1 μM.

[5] = Donor 1, read-out: Cellular EC50 (μM) Donor 1
[6] = Donor 2, read-out: Cellular EC50 (μM) Donor 2

| SMILES | EC50 [1] [nM] | EC50 [2] [nM] | EC50 [3, 5] [µM] | EC50 [3, 6] [µM] | EC50 [4] [nM] |
| --- | --- | --- | --- | --- | --- |
| CN1[C@H](C2CCCCC2)CN(c2ccccc2)c2cc(Cl)c(-c3ccc(F)c(C(=O)O)c3)cc2S1(=O)=O [Example 25, (R)-5-(7-chloro-3-cyclohexyl-2-methyl-1,1-dioxido-5-phenyl-2,3,4,5-tetrahydrobenzo[f][1,2,5]thiadiazepin-8-yl)-2-fluorobenzoic acid] | < 100 | < 100 | < 0.1 | 0.1 to 1 | – |
| Cc1cc(-c2cc3c(cc2F)N(c2ccccc2)C[C@@H](C2CCCCC2)N(C)S3(=O)=O)sc1C(=O)O [Example 127, (R)-5-(3-cyclohexyl-7-fluoro-2-methyl-1,1-dioxido-5-phenyl-2,3,4,5-tetrahydrobenzo[f][1,2,5]thiadiazepin-8-yl)-3-methylthiophene-2-carboxylic acid] | < 100 | – | – | < 0.1 | < 100 |
| CN1[C@H](C2CCCCC2)CN(c2ccccc2)c2cc(Cl)c(-c3cc(F)c(C(=O)O)s3)cc2S1(=O)=O [Example 116, (R)-5-(7-chloro-3-cyclohexyl-2-methyl-1,1-dioxido-5-phenyl-2,3,4,5-tetrahydrobenzo[f][1,2,5]thiadiazepin-8-yl)-3-fluorothiophene-2-carboxylic acid] | < 100 | < 100 | < 0.1 | – | < 100 |
| Cc1cc(-c2cc3c(cc2Cl)N(c2ccccc2)C[C@@H](C2CCCCC2)N(C)S3(=O)=O)sc1C(=O)O [Example 126, (R)-5-(7-chloro-3-cyclohexyl-2-methyl-1,1-dioxido-5-phenyl-2,3,4,5-tetrahydrobenzo[f][1,2,5]thiadiazepin-8-yl)-3-methylthiophene-2-carboxylic acid] | < 100 | < 100 | – | – | – |
